Patent US5414008A, “Imidazolyl-substituted phenylpropionic and cinnamic acid derivatives” (Bayer Aktiengesellschaft, priority 1992, dated 1995)

Tests used:
smooth muscle cells = assay: Inhibition of the proliferation of smooth muscle cells (3H-thymidine incorporation); assay type: cell-based; settings: Sus scrofa, 10^-6 M, smooth muscle cells from pig aortas
Experimental: To determine the antiproliferative action of the compounds, smooth muscle cells are used which are obtained from aortas of pigs by the media explant technique [R.Ross, J. Cell. Biol. 50, 172, 1971]. The cells are inoculated into suitable culture dishes, as a rule 96-hole plates, and cultured in 5% CO2 at 37° C. for 2-3 days in medium 199 containing 7.5% FCS and 7.5% NCS, 2 mmol L-glutamine and 15 mmol HEPES, pH 7.4. The cells are then synchronised by withdrawal of serum for 2-3 days and then stimulated into growth with serum or other factors. Test compounds are simultaneously added. After 16-20 hours, 1 μCi ^3 H-thymidine is added and after a further 4 hours the incorporation of this substance into the TCA-precipitatable DNA of the cells is determined.
To determine the IC50 values, the active compound concentration is calculated which on sequential dilution of the active compound causes half-maximal inhibition of the thymidine incorporation produced by 1% FCS.

[1] = tested on: isolated rabbit aorta rings, contraction induced by angiotensin II; assay: Inhibition of vascular contraction induced by angiotensin II (AII) in isolated rabbit aorta rings in vitro; settings: based on 3rd = submaximal agonist concentration, read-out: IC50 against contractions induced by AII
Experimental: Rabbits of either sex are stunned by a blow to the back of the head and bled out, or in some cases anaesthetized with Nembutal (about 60-80 mg/kg i.v.) and sacrificed by opening the thorax. The thorax aorta is removed, freed from adhering connective tissue, divided into ring segments 1.5 mm wide and individually transferred under an initial loading of about 3.5 g to 10 ml organ baths containing Krebs-Henseleit nutrient solution, which is temperature-controlled at 37° C. and aerated with 95% 02/5 % CO2, of the following composition: 119 mmol/l of NaCl; 2.5mmol/l of CaCl2 ×2H2 O; 1.2 mmol/1 of KH2 PO4; 10mmol/l of glucose; 4.8 mmol/l of KCl; 1.4 mmol/l of MgSO4 ×H2 O and 25 mmol/1 of NaHCO3.
The contractions are detected isometrically by Statham UC2 cells by means of bridge amplifiers (ifd Milheim or DSM Aalen) and digitalised and assessed by means of A/D converters (System 570, Keithley Munich). Agonist dose response curves (DRC) are plotted hourly. With each DRC, 3 or 4 individual concentrations are applied to the baths at a 4 min interval. After the end of the DRC and subsequent washing-out cycles (16 times in each case about 5 sec/min with the abovementioned nutrient solution), a 28-minute rest or incubation phase follows, during which the contractions as a rule reach the staring value again.
The height of the 3rd DRC, in a normal case, is used as a reference variable for the assessment of the test substance to be investigated in further runs, which is applied to the baths in the following DRCs in increasing doses in each case at the start of the incubation period. Each aorta ring is in this case stimulated for the whole day, always with the same agonist.
For the calculation of the IC50 (concentration at which the substance to be investigated causes a 50% inhibition), the effect is in each case based on the 3rd =submaximal agonist concentration.

angiotensin II receptor = biological target: T1, angiotensin II receptor (Bos taurus, UniProt P25104); assay: Angiotensin II receptor binding (3H-angiotensin II) in membrane fractions of bovine adrenal gland cortex; settings: bovine adrenal gland cortex membranes, 3H-angiotensin II 3-5 nM, 60 min, room temperature
T1 construct: Bovine adrenal gland cortices (AGC), which have been freshly removed and carefully freed from gland medulla; from tissue; host or cells: bovine adrenal gland cortex, partially purified membrane fractions
T1 sequence (P25104 1-359): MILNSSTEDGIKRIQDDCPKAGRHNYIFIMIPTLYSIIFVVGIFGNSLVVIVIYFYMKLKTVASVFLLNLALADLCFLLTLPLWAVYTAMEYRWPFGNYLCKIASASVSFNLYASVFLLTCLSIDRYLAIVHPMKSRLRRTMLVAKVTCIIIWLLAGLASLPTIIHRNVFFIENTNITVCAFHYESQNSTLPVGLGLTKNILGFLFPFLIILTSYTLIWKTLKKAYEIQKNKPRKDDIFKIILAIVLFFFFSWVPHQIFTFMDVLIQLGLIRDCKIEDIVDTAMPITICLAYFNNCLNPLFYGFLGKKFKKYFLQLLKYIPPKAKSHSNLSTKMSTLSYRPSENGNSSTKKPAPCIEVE
Experimental: Bovine adrenal gland cortices (AGC), which have been freshly removed and carefully freed from gland medulla, are comminuted in sucrose solution (0.32 M) with the aid of an Ultra-Turrax (Janke & Kunkel, Staufen i.B.) to give a coarse membrane homogenate and partially purified in two centrifugation steps to give membrane fractions. The receptor binding investigations are carried out on partially purified membrane fractions of bovine AGC using radioactive angiotensin II in an assay volume of 0.25 ml, which specifically contains the partially purified membranes (50-80 μg), ^3 H-angiotensin II .(3-5 nM), test buffer solution (50 mMTris, pH 7.2, 5 mM MgCl2) and the substances to be investigated. After an incubation time of 60 min at room temperature, the unbound radioactivity of the samples is separated by means of moistened glass fibre filters (Whatman GF/C) and the bound radioactivity is measured […] in a scintillation cocktail after washing the protein with ice-cold buffer solution (50 mM Tris/HCl, pH 7.4, 5% PEG 6000). The analysis of the raw data was carried out using computer programs to give Ki or IC50 values (Ki : IC50 values corrected for the radioactivity used; IC50 values: concentration at which the substance to be investigated causes a 50% inhibition of the specific binding of the radioligand).

| SMILES | IC50 [1] [µM] | Ki (angiotensin II receptor) [µM] | inhibition at 1 µM (smooth muscle cells) [%] |
| --- | --- | --- | --- |
| CCCCc1nc(Cl)c(C=O)n1Cc1ccc(/C(=C\C(=O)NS(=O)(=O)c2ccc(C)cc2)c2ccccc2)cc1 [Example 40] | – | – | 57 |
| CCCCc1nc(Cl)c(CO)n1Cc1ccc(C(CC(=O)OC(C)(C)C)c2ccccc2)cc1 (centres unmarked) [Example 18] | – | – | 90 |
| CCCCc1nc(Cl)c(C=O)n1Cc1ccc(/C(=C/C(=O)NS(=O)(=O)c2ccc(C)cc2)c2ccccc2)cc1 [Example 39] | – | – | 59 |
| CCCCc1nc(Cl)c(CO)n1Cc1ccc(C(=CC(=O)NC(CO)c2ccccc2)c2ccccc2)cc1 (centres unmarked) [Example 20] | 0.36 | – | – |

Second part, led by results:

| IC50 [1] [µM] | Ki (angiotensin II receptor) [µM] | SMILES | inhibition at 1 µM (smooth muscle cells) [%] |
| --- | --- | --- | --- |
| 0.65 | – | CCCCc1nc(Cl)c(C=O)n1Cc1ccc(C(CC(=O)O)c2ccccc2)cc1 (centres unmarked) [Example 35] | – |
| 0.58 | 0.34 | CCCCc1nc(Cl)c(CO)n1Cc1ccc(/C(=C\C(=O)O)c2ccccc2)cc1 [Example 30] | – |
| – | 0.19 | CCCCc1nc(Cl)c(C=O)n1Cc1ccc(C(CC(=O)O)C2CCCC2)cc1 (centres unmarked) [Example 37] | – |
| – | 0.15 | CCCCc1nc(Cl)c(CO)n1Cc1ccc(C(CC(=O)O)c2ccccc2)cc1 (centres unmarked) [Example 36] | – |
| 0.36 | 0.31 | CCCCc1nc(Cl)c(C=O)n1Cc1ccc(/C(=C/C(=O)O)c2ccccc2)cc1 [Example 31] | – |
